Calls of active or inactive are those of the source. No cut-off for these calls is given here.
Assays:
[1] = biological target: Adenosine receptor A2a (Homo sapiens) (UniProt P29274); test: Displacement of [3H]ZM241385 from human adenosine A2A receptor expressed in CHO cells at 10 uM after 120 mins by scintillation counting; format: cell-based
[2] = biological target: T1, Adenosine receptor A1 (Homo sapiens) (UniProt P30542); test: (§1) Allosteric enhancing activity at human adenosine A1 receptor expressed in CHO cells assessed as inhibition of forskolin-stimulated cAMP accumulation at 10 uM incubated for 10 mins prior to forskolin-stimulation measured after 5 mins by competition protein binding assay; format: functional, cell-based
T1 sequence (whole entry): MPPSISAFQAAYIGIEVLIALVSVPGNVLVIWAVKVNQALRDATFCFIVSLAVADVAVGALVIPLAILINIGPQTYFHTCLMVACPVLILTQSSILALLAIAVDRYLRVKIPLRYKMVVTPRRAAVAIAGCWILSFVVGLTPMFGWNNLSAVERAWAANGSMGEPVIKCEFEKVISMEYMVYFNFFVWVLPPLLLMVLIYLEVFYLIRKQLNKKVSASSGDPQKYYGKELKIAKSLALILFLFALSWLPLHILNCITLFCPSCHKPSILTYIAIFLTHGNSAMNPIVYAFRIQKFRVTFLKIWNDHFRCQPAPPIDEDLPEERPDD

[3] = biological target: T1, Adenosine receptor A1 (Homo sapiens); test: Allosteric enhancing activity at human adenosine A1 receptor expressed in CHO cells assessed as increase in CCPA-induced [3H]DPCPX displacement at 10 uM after 90 mins relative to control; format: cell-based
[4] = biological target: T2, Adenosine receptor A3 (Homo sapiens) (UniProt P0DMS8); test: Displacement of [3H]MRE-3008-F20 from human adenosine A3 receptor expressed in CHO cells at 10 uM after 120 mins by scintillation counting; format: cell-based
T2 sequence (whole entry): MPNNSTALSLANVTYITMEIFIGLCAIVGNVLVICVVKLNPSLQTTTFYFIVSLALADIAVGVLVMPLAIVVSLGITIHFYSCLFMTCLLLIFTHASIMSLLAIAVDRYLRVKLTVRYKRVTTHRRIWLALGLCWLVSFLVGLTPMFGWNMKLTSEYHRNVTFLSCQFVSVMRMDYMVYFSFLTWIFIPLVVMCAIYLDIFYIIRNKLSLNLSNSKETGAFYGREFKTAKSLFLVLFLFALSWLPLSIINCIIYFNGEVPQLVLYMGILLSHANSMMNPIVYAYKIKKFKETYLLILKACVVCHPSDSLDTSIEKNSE

[5] = biological target: T1, Adenosine receptor A1 (Homo sapiens); test: as §1, with “100 nM” for “10 uM”, “assay in presence of 2-chloro-N6-cyclopentyladenosine” for “assay”; format: functional, cell-based
[6] = biological target: T1, Adenosine receptor A1 (Homo sapiens); test: Displacement of [3H]DPCPX from human adenosine A1 receptor expressed in CHO cells at 10 uM after 120 mins by scintillation counting; format: cell-based
[7] = biological target: T1, Adenosine receptor A1 (Homo sapiens); test: Allosteric enhancing activity at human adenosine A1 receptor expressed in CHO cells assessed as increase in [3H]-2-chloro-N6-cyclopentyladenosine Bmax at 10 uM after 90 mins relative to control; format: cell-based

Chain of Adenosine receptor A2a (Homo sapiens) (P29274 whole entry): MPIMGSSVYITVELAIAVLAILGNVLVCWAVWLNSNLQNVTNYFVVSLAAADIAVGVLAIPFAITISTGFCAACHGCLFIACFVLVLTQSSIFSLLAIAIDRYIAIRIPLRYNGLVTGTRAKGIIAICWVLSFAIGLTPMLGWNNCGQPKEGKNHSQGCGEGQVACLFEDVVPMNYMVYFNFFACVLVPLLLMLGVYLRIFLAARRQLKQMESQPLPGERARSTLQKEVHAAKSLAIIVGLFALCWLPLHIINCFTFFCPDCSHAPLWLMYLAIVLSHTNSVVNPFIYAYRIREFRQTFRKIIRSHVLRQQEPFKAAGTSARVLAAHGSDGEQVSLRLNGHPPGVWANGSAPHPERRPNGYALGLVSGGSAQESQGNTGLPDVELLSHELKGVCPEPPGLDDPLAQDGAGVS

| Structure (SMILES) | inhibition [1] | inhibition [2] | Ratio Ki [3] | inhibition [4] | inhibition [5] | inhibition [6] | fold change (FC) [7] |
| --- | --- | --- | --- | --- | --- | --- | --- |
| Nc1sc(-c2ccccc2)c(CN2CCN(c3ccc(Cl)c(C(F)(F)F)c3)CC2)c1C(=O)c1ccc(Cl)cc1 | < 12% | 64% | 7.9 | < 12% | 65% | < 12% | 8.5 |
| Nc1sc(-c2ccc(Cl)cc2)c(CN2CCN(c3ccccc3C(F)(F)F)CC2)c1C(=O)c1ccc(Cl)cc1 | < 12% | 66% | 7.2 | < 12% | 62% | < 12% | 8.1 |
| Nc1sc(-c2ccc(Cl)cc2)c(CN2CCN(Cc3ccccc3)CC2)c1C(=O)c1ccc(Cl)cc1 | < 12% | 65% | 6.8 | < 12% | 63% | < 12% | 7.7 |
| Nc1sc(-c2ccccc2)c(CN2CCN(c3ccccc3C(F)(F)F)CC2)c1C(=O)c1ccc(Cl)cc1 | < 12% | 62% | 7.6 | < 12% | 66% | < 12% | 8.2 |
| Nc1sc(-c2ccc(Cl)cc2)c(CN2CCN(c3ccc(C(F)(F)F)cc3)CC2)c1C(=O)c1ccc(Cl)cc1 | < 12% | 83% | 10.5 | < 12% | 75% | < 12% | 11.2 |
| Cc1sc(N)c(C(=O)c2ccc(Cl)cc2)c1CN1CCN(c2ccccc2)CC1 | < 12% | 59% | 6.4 | < 12% | 57% | < 12% | 6.8 |
| Cc1sc(N)c(C(=O)c2ccc(Cl)cc2)c1CN1CCN(c2ccc(Cl)c(Cl)c2)CC1 | < 12% | 56% | 5.4 | < 12% | 51% | < 12% | 5.9 |
| Cc1sc(N)c(C(=O)c2ccc(Cl)cc2)c1CN1CCN(c2ccc(Cl)c(C(F)(F)F)c2)CC1 | < 12% | 52% | 4.6 | < 12% | 48% | < 12% | 5.1 |
| Nc1sc(-c2ccccc2)c(CN2CCN(c3ccc(OC(F)(F)F)cc3)CC2)c1C(=O)c1ccc(Cl)cc1 | < 12% | 67% | 8.4 | < 12% | 69% | < 12% | 9.4 |
| Cc1sc(N)c(C(=O)c2ccc(Cl)cc2)c1CN1CCN(c2ccc(I)cc2)CC1 | < 12% | 54% | 4.8 | < 12% | 45% | < 12% | 5.4 |
| Nc1scc(CN2CCN(c3ccc(Cl)cc3)CC2)c1C(=O)c1ccc(Cl)cc1 |  |  | 5.6 |  |  |  | 7 |
| Nc1sc(-c2ccc(Cl)cc2)c(CN2CCN(c3ccc(F)cc3)CC2)c1C(=O)c1ccc(Cl)cc1 | < 12% | 71% | 8.3 | < 12% | 68% | < 12% | 9.5 |
| Nc1scc(CN2CCN(c3ccc(OC(F)(F)F)cc3)CC2)c1C(=O)c1ccc(Cl)cc1 |  |  | 5.3 |  |  |  | 6.8 |
| CCc1sc(N)c(C(=O)c2ccc(Cl)cc2)c1CN1CCN(c2ccc(F)cc2)CC1 | < 12% | 63% | 3.8 | < 12% | 55% | < 12% | 6.7 |
| Cc1ccc(N2CCN(Cc3c(C)sc(N)c3C(=O)c3ccc(Cl)cc3)CC2)cc1 | < 12% | 61% | 5.9 | < 12% | 58% | < 12% | 6.6 |
| Nc1sc(-c2ccc(F)cc2)c(CN2CCN(c3ccccc3)CC2)c1C(=O)c1ccc(Cl)cc1 | < 12% | 89% | 13.3 | < 12% | 81% | < 12% | 14.1 |

| Structure (SMILES) | inhibition [1] | inhibition [2] | Ratio Ki [3] | inhibition [4] | inhibition [5] | inhibition [6] | fold change (FC) [7] |
| --- | --- | --- | --- | --- | --- | --- | --- |
| Nc1sc(-c2ccc(Cl)cc2)c(CN2CCN(c3ccc(OC(F)(F)F)cc3)CC2)c1C(=O)c1ccc(Cl)cc1 | < 12% | 78% | 8.9 | < 12% | 72% | < 12% | 10.7 |
| Nc1sc(-c2ccc(Cl)cc2)c(CN2CCN(c3ccc(Cl)cc3)CC2)c1C(=O)c1ccc(Cl)cc1 | < 12% | 85% | 8.7 | < 12% | 71% | < 12% | 11.4 |
| Cc1sc(N)c(C(=O)c2ccc(Cl)cc2)c1CN1CCN(c2cccc(Cl)c2)CC1 | < 12% | 58% | 6.1 | < 12% | 54% | < 12% | 6.5 |
| Cc1sc(N)c(C(=O)c2cccc(C(F)(F)F)c2)c1C | inactive |  | 1.6 |  | 22% | inactive | 1.3 |
| Nc1sc(Br)c(CN2CCN(c3ccccc3)CC2)c1C(=O)c1ccc(Cl)cc1 | < 12% | 48% | 4.5 | < 12% | 43% | < 12% | 4.7 |
| Nc1sc(-c2ccccc2)c(CN2CCN(c3cccc(C(F)(F)F)c3)CC2)c1C(=O)c1ccc(Cl)cc1 | < 12% | 63% | 7.1 | < 12% | 60% | < 12% | 7.5 |
| Cc1sc(N)c(C(=O)c2ccc(Cl)cc2)c1CN1CCN(c2ccc(Cl)cc2)CC1 | < 12% | 44% | 4.2 | < 12% | 40% | < 12% | 4.7 |
| Nc1sc(-c2ccccc2)c(CN2CCN(c3ccccc3)CC2)c1C(=O)c1ccc(Cl)cc1 | < 12% | 79% | 8.3 | < 12% | 74% | < 12% | 11.5 |
| Nc1sc(-c2ccccc2)c(CN2CCN(c3ccc(Cl)c(Cl)c3)CC2)c1C(=O)c1ccc(Cl)cc1 | < 12% | 55% | 3 | < 12% | 56% | < 12% | 6.8 |
| Nc1sc(-c2ccc(F)cc2)c(CN2CCN(c3ccc(F)cc3)CC2)c1C(=O)c1ccc(Cl)cc1 | < 12% | 82% | 9.5 | < 12% | 77% | < 12% | 11.7 |
| Nc1sc(Br)c(CN2CCN(c3ccc(F)cc3)CC2)c1C(=O)c1ccc(Cl)cc1 | < 12% | 46% | 4.1 | < 12% | 41% | < 12% | 4.4 |
| Cc1sc(N)c(C(=O)c2ccc(Cl)cc2)c1CN1CCN(c2ccc(Br)cc2)CC1 | < 12% | 49% | 4.5 | < 12% | 46% | < 12% | 4.9 |
| Cc1sc(N)c(C(=O)c2ccc(Cl)cc2)c1CN1CCN(c2cccc(C(F)(F)F)c2)CC1 | < 12% | 51% | 5.7 | < 12% | 52% | < 12% | 6.2 |
| Nc1sc(-c2ccc(Cl)cc2)c(CN2CCN(c3ccccc3)CC2)c1C(=O)c1ccc(Cl)cc1 | < 12% | 75% | 9.5 | < 12% | 72% | < 12% | 10.2 |
| Nc1scc(CN2CCN(c3ccc(C(F)(F)F)cc3)CC2)c1C(=O)c1ccc(Cl)cc1 |  |  | 6.3 |  |  |  | 7.7 |
